Experimental data: ChEMBL document CHEMBL1135641, “Antitumor agents. 217. Curcumin analogues as novel androgen receptor antagonists with potential as anti-prostate cancer agents” (J Med Chem, 2002)

Columns and labels:
[1] = molecular target: T1, Androgen receptor (Homo sapiens) (UniProt P10275); test: Antagonistic activity against Androgen receptor in DU-145 human prostate cancer cells; format: functional, cell-based
T1 sequence (whole entry): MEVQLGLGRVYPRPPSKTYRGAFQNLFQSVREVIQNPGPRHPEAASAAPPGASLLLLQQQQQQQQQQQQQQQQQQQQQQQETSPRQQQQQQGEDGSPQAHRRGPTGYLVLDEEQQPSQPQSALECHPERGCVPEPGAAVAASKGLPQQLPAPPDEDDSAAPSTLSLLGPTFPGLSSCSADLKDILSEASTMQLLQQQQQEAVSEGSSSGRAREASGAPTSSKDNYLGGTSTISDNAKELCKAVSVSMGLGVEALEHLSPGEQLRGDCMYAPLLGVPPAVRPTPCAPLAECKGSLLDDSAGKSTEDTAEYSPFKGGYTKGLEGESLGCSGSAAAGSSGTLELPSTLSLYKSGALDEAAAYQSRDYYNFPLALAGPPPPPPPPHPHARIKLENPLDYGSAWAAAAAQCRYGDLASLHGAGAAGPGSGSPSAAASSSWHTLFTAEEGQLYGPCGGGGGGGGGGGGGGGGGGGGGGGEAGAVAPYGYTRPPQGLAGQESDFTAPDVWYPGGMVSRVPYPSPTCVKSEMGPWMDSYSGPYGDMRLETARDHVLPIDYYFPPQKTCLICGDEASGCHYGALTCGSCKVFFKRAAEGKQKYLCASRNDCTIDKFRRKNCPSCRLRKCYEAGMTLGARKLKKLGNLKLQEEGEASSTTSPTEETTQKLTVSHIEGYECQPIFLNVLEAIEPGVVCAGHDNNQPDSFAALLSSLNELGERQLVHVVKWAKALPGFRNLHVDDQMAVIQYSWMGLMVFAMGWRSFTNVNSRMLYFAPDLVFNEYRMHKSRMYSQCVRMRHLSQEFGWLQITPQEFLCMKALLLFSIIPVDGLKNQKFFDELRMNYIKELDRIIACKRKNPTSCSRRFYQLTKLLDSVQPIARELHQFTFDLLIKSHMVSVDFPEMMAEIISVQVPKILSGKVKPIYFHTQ

[2] = molecular target: T1, Androgen receptor (Homo sapiens); test: Reduction in DHT-induced Androgen receptor activity
[3] = molecular target: T1, Androgen receptor (Homo sapiens); test: Antagonistic activity against Androgen receptor in PC-3 human prostate cancer cells; format: functional, cell-based

| Compound | Reduction [1] [%] | Reduction [2] [%] | Reduction [3] [%] |
| --- | --- | --- | --- |
| COC(=O)COc1ccc(/C=C/C(=O)/C=C(O)/C=C/c2ccc(OCC(=O)OC)c(OC)c2)cc1OC | 54 | – | – |
| CCOC(O)=C(C(=O)/C=C/c1ccc(O)c(OC)c1)C(=O)/C=C/c1ccc(O)c(OC)c1 | 53.8 | – | – |
| COc1ccc(/C=C/C(=O)/C=C(O)/C=C/c2ccc(OC)c(OC)c2)cc1OC | 45 | – | 70 |

Further lines, results first:

| Reduction [1] [%] | Reduction [2] [%] | Reduction [3] [%] | Compound |
| --- | --- | --- | --- |
| – | 18 | – | COc1ccc(CCC(=O)CC(O)CCc2ccc(OC)c(OC)c2)cc1OC (stereo unspecified) |
| – | 18 | – | COc1ccc(CCC(=O)CC(=O)CCc2ccc(OC)c(OC)c2)cc1OC |
